Experimental data reported in patent US20250090540A1, “PI3K-ALPHA INHIBITORS AND METHODS OF USE THEREOF” (Relay Therapeutics, Inc., priority 2021, published 2025).
pIC50: −log10 of the molar value.

Target: H1047R PIK3CA enzyme (Homo sapiens, UniProt P42336, H1047R)
Test: ADP-Glo Biochemical PIK3CA Kinase Assay
Conditions: ADP-Glo biochemical PIK3CA kinase assay

H1047R PIK3CA enzyme, sequence (P42336 whole entry H1047R): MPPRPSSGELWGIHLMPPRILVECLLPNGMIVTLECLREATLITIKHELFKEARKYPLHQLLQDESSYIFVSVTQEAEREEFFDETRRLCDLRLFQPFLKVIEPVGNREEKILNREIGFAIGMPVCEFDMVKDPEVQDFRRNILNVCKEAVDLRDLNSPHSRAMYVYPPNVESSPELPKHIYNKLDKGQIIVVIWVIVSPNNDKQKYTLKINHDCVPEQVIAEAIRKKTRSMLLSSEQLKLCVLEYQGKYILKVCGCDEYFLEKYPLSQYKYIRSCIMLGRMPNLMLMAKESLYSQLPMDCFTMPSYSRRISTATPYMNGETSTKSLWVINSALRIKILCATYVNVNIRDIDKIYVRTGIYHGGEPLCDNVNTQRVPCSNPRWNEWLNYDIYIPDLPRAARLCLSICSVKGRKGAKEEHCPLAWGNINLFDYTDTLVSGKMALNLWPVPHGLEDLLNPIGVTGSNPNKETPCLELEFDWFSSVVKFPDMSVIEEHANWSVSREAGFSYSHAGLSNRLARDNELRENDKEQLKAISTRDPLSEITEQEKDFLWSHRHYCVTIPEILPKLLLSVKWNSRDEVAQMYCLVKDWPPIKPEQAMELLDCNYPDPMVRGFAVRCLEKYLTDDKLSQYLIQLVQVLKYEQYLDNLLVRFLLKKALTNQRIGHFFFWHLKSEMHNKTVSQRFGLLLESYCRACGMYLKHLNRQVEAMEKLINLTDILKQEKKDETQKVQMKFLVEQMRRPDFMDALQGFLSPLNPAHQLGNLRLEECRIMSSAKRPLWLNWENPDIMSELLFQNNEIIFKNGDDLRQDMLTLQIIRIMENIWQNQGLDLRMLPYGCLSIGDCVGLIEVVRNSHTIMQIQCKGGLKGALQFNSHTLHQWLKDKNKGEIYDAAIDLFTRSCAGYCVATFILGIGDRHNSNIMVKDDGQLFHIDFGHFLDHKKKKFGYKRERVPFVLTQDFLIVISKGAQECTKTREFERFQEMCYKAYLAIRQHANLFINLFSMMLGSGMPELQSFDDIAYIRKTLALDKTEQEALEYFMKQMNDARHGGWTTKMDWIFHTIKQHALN
H1047R PIK3CA enzyme, sequence (P27986 whole entry partner): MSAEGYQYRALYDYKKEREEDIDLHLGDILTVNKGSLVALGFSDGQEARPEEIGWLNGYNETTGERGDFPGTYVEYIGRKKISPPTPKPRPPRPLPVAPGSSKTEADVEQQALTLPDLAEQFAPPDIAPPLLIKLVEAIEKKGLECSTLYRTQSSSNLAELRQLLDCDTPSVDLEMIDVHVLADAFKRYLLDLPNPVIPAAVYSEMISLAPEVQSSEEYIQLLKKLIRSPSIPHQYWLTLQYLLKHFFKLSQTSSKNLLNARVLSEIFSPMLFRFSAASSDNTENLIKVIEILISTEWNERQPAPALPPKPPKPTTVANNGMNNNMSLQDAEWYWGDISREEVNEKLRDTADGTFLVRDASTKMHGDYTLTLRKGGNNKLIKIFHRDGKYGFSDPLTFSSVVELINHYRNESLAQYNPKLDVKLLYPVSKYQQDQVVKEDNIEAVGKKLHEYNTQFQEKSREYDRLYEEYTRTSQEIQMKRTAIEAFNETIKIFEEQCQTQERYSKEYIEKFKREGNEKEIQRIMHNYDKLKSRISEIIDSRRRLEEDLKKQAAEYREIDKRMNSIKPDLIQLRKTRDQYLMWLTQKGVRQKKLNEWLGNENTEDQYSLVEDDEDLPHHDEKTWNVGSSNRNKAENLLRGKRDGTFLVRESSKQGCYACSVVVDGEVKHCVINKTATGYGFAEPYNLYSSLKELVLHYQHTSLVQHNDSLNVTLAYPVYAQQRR

SMILES	pIC50
CNC(=O)c1cnc(Nc2ccccc2C)c(NC(=O)c2cccc3ccoc23)c1 [I-494]	4.00 to 5.00
CNC(=O)c1cnc(Nc2ccccc2C)c(NC(=O)c2cc(F)ccc2OC(F)(F)F)c1 [I-495]	4.00 to 5.00
CNC(=O)c1cnc(Nc2ccccc2C)c(NC(=O)CCc2cc(F)ccc2Br)c1 [I-497]	4.00 to 5.00
Cc1ccccc1Nc1ncc(C(=O)Nc2cnn3cccc(F)c23)cc1NC(=O)c1csc2ccccc12 [I-500]	4.00 to 5.00
CNC(=O)c1cnc(Nc2ccccc2C)c(NC(=O)Cc2cccc(Br)c2F)c1 [I-501]	4.00 to 5.00
CNC(=O)c1cnc(Nc2ccccc2C)c(NC(=O)Cc2ccc(F)cc2C(F)(F)F)c1 [I-502]	4.00 to 5.00
CNC(=O)c1cnc(Nc2ccccc2C)c(NC(=O)C2(c3cccc(Br)c3)CC2)c1 [I-503]	4.00 to 5.00
CNC(=O)c1cnc(Nc2ccccc2C)c(NC(=O)c2ccc3c(c2)CCN3C)c1 [I-504]	4.00 to 5.00
CNC(=O)c1cnc(Nc2ccccc2C)c(NC(=O)c2cc3ccccc3n2C)c1 [I-505]	4.00 to 5.00
CNC(=O)c1cnc(Nc2ccccc2C)c(NC(=O)c2cc3c(Cl)cc(Cl)cc3[nH]2)c1 [I-507]	5.00 to 6.00
CNC(=O)c1cnc(Nc2ccccc2C)c(NC(=O)c2cn3cccc(Br)c3n2)c1 [I-509]	4.00 to 5.00
Cc1ccccc1Nc1ncc(C(=O)NCC2(C#N)CCCC2)cc1NC(=O)c1csc2ccccc12 [I-511]	4.00 to 5.00
CCOc1c(F)c(F)cc(C(=O)Nc2cc(C(=O)NC)cnc2Nc2ccccc2C)c1F [I-512]	4.00 to 5.00
CNC(=O)c1cnc(Nc2ccccc2C)c(NC(=O)C2(c3cccc(Cl)c3)CC2)c1 [I-513]	4.00 to 5.00
CNC(=O)c1cnc(Nc2ccccc2C)c(NC(=O)c2c[nH]c3ccc(Cl)cc23)c1 [I-514]	4.00 to 5.00
CNC(=O)c1cnc(Nc2ccccc2C)c(NC(=O)c2ccc(Br)c3cccnc23)c1 [I-516]	4.00 to 5.00
CNC(=O)c1cnc(Nc2ccccc2C)c(NC(=O)CCc2cc(Cl)ccc2Cl)c1 [I-517]	4.00 to 5.00
CNC(=O)c1cnc(Nc2ccccc2C)c(NC(=O)c2cccc3ccn(C)c23)c1 [I-518]	4.00 to 5.00
Cc1ccccc1Nc1ncc(C(=O)Nc2c3c(nn2C)CCC3)cc1NC(=O)c1csc2ccccc12 [I-521]	4.00 to 5.00
CNC(=O)c1cnc(Nc2ccccc2C)c(NC(=O)c2[nH]c3ccccc3c2Br)c1 [I-522]	4.00 to 5.00
CNC(=O)c1cnc(Nc2ccccc2C)c(NC(=O)c2ccc3c(ccn3C)c2)c1 [I-523]	4.00 to 5.00

SMILES	pIC50
CNC(=O)c1cnc(Nc2ccccc2C)c(NC(=O)c2ccc(C(F)(F)F)n2C)c1 [I-524]	4.00 to 5.00
CNC(=O)c1cnc(Nc2ccccc2C)c(NC(=O)c2c[nH]c3cccc(Cl)c23)c1 [I-528]	4.00 to 5.00
CNC(=O)c1cnc(Nc2ccccc2C)c(NC(=O)c2cccc3c2OC(C)(C)C3)c1 [I-529]	4.00 to 5.00
Cc1ccccc1Nc1ncc(C(=O)NCC2CCC(F)(F)C2)cc1NC(=O)c1csc2ccccc12 (stereo not shown) [I-531]	4.00 to 5.00
Cc1ccccc1Nc1ncc(C(=O)N2CC(C)(F)C2)cc1NC(=O)c1csc2ccccc12 [I-536]	5.00 to 6.00
CNC(=O)c1cnc(Nc2ccccc2C)c(NC(=O)c2ccc(Cl)c(C)c2F)c1 [I-537]	4.00 to 5.00
COC1CN(C(=O)c2cnc(Nc3ccccc3C)c(NC(=O)c3csc4ccccc34)c2)C1 [I-541]	5.00 to 6.00
CNC(=O)c1cnc(Nc2ccccc2C)c(NC(=O)CCc2cc(Br)ccc2F)c1 [I-542]	4.00 to 5.00
Cc1ccccc1Nc1ncc(C(=O)N2CC(C)(C#N)C2)cc1NC(=O)c1csc2ccccc12 [I-543]	5.00 to 6.00
Cc1ccccc1Nc1c(NC(=O)c2csc3ccccc23)ccn(C)c1=O [I-548]	5.00 to 6.00
COc1ccc(SC2(C(=O)O)CC(=O)NC2c2ccccc2C)cc1 (stereo not shown) [I-549]	5.00 to 6.00
CNC(=O)c1cnc(NCCC#N)c(NC(=O)c2cc(F)cc(C(F)(F)F)c2)c1 [I-550]	5.00 to 6.00
CNC(=O)c1cnc(Nc2ccccc2C)c(NC(=O)c2csc3cncnc23)c1 [I-551]	5.00 to 6.00
Cc1ccccc1Nc1c(NC(=O)c2csc3ccccc23)ccc2cc[nH]c12 [I-552]	5.00 to 6.00
Cc1ccccc1Nc1nnccc1NC(=O)c1csc2ccccc12 [I-553]	5.00 to 6.00
CNC(=O)c1cnc(Nc2ccccc2C)c(NC(=O)c2nc(Cl)cc3ccccc23)c1 [I-555]	5.00 to 6.00
CNC(=O)c1cnc(Nc2ccccc2C)c(NC(=O)c2cc(C)cc(C#N)c2)c1 [I-556]	5.00 to 6.00
CNC(=O)c1cnc(Nc2ccccc2C)c(NC(=O)Cc2cc3cccnc3cc2F)c1 [I-557]	5.00 to 6.00
CNC(=O)c1cnc(Nc2ccccc2C)c(NC(=O)Cc2ccc3ncccc3c2)c1 [I-558]	5.00 to 6.00
Cc1ccccc1Nc1ncc(C(=O)N[C@@H]2C3CCC(C3)[C@H]2C(=O)O)cc1NC(=O)c1csc2ccccc12 (stereo partly shown) [I-559]	5.00 to 6.00

Continued, values first:

pIC50	SMILES
6.00 to 6.30	Cc1ccccc1Nc1ncc(C(=O)NCC2(O)CCCC2)cc1NC(=O)c1csc2ccccc12 [I-562]
5.00 to 6.00	Cc1ccccc1Nc1ncc(C(=O)NCC(C)(C)O)cc1NC(=O)c1csc2ccccc12 [I-565]
5.00 to 6.00	CNC(=O)c1cnc(Nc2ccccc2C)c(NC(=O)c2cccc(F)c2Cl)c1 [I-566]
5.00 to 6.00	CNC(=O)c1cnc(Nc2ccccc2C)c(NC(=O)c2ccc(CO)c(F)c2)c1 [I-567]
5.00 to 6.00	Cc1ccccc1Nc1ncc(C(=O)NC2CCN(C)C2)cc1NC(=O)c1csc2ccccc12 (stereo not shown) [I-574]
6.00 to 6.30	CNC(=O)c1cnc(Nc2ccccc2C)c(NC(=O)c2ccc3ncc(Br)n3c2)c1 [I-575]
5.00 to 6.00	Cc1ccccc1Nc1ncc(C(=O)N2CC3(COC3)C2)cc1NC(=O)c1csc2ccccc12 [I-576]
5.00 to 6.00	CNC(=O)c1cnc(Nc2ccccc2C)c(NC(=O)c2cccc(COC)c2)c1 [I-577]
6.00 to 6.30	Cc1ccccc1Nc1ncc(C(=O)NCc2ncccn2)cc1NC(=O)c1csc2ccccc12 [I-586]
5.00 to 6.00	CNC(=O)c1cnc(Nc2ccccc2C)c(NC(=O)Cc2cc(Cl)cc(C(F)(F)F)c2)c1 [I-587]
5.00 to 6.00	Cc1ccccc1Nc1ncc(C(=O)N2CCC(C)(O)C2)cc1NC(=O)c1csc2ccccc12 (stereo not shown) [I-589]
5.00 to 6.00	CNC(=O)c1cnc(Nc2ccccc2C)c(NC(=O)Cc2cc(Br)ccc2Cl)c1 [I-595]
5.00 to 6.00	Cc1ccccc1Nc1ncc(C(=O)N2CC(C(=O)O)C2)cc1NC(=O)c1csc2ccccc12 [I-600]
5.00 to 6.00	Cc1ccccc1Nc1ncc(C(=O)Nc2ncnn2C)cc1NC(=O)c1csc2ccccc12 [I-606]
5.00 to 6.00	Cc1cc(CC(C)NC(=O)c2cnc(Nc3ccccc3C)c(NC(=O)c3csc4ccccc34)c2)on1 (stereo not shown) [I-614]
5.00 to 6.00	COCC1CN(C(=O)c2cnc(Nc3ccccc3C)c(NC(=O)c3csc4ccccc34)c2)C1 [I-615]
5.00 to 6.00	Cc1ccccc1Nc1ncc(C(=O)N[C@H]2CC[C@]3(CCC(=O)N3)CC2)cc1NC(=O)c1csc2ccccc12 [I-617]
5.00 to 6.00	Cc1ccccc1Nc1ncc(C(=O)N2CC(C)(O)C2)cc1NC(=O)c1csc2ccccc12 [I-620]
6.00 to 6.30	Cc1ccccc1Nc1ncc(C(=O)N2CCC(F)C2)cc1NC(=O)c1csc2ccccc12 (stereo not shown) [I-623]
5.00 to 6.00	Cc1ccccc1Nc1ncc(C(=O)N2CC(CF)C2)cc1NC(=O)c1csc2ccccc12 [I-628]
5.00 to 6.00	Cc1ccccc1Nc1ncc(C(=O)O)cc1NC(=O)c1csc2ccccc12 [I-629]
5.00 to 6.00	Nc1cc(C(=O)NC2CS(=O)(=O)C2)cnc1N1CCOc2ccccc21 [I-630]
5.00 to 6.00	O=C(O)c1cnc(N2CCOc3ccccc32)c(NC(=O)c2csc3ccccc23)c1 [I-631]
5.00 to 6.00	Nc1cc(C(=O)O)cnc1N1CCOc2ccccc21 [I-632]

pIC50	SMILES
5.00 to 6.00	O=C(NC1CC(F)(F)C1)c1cnc(Nc2ccccc2Cl)c(NC(=O)c2csc3ccccc23)c1 [I-641]
5.00 to 6.00	CNC(=O)c1cnc(Nc2ccccc2C)c(NC(=O)c2nc3cccc(C(F)(F)F)n3n2)c1 [I-642]
5.00 to 6.00	CNC(=O)c1cnc(Nc2ccccc2C)c(NC(=O)CCc2ccncc2C)c1 [I-643]
5.00 to 6.00	CNC(=O)c1cnc(Nc2ccccc2C)c(NC(=O)c2onc3ccccc23)c1 [I-644]
5.00 to 6.00	CNC(=O)c1cnc(Nc2ccccc2C)c(NC(=O)c2ccc3cnccc3n2)c1 [I-645]
5.00 to 6.00	CNC(=O)c1cnc(Nc2ccccc2C)c(NC(=O)Cn2ccccc2=O)c1 [I-646]
5.00 to 6.00	CNC(=O)c1cnc(Nc2ccccc2C)c(NC(=O)c2ccn3ccnc3c2)c1 [I-647]
5.00 to 6.00	CNC(=O)c1cnc(Nc2ccccc2C)c(NC(=O)c2ccc3cnccc3c2)c1 [I-648]
5.00 to 6.00	CNC(=O)c1cnc(Nc2ccccc2C)c(NC(=O)C2CCc3ccccc3O2)c1 (stereo not shown) [I-649]
5.00 to 6.00	CNC(=O)c1cnc(Nc2ccccc2C)c(NC(=O)c2ccnc(C(F)F)c2)c1 [I-650]
5.00 to 6.00	CNC(=O)c1cnc(Nc2ccccc2C)c(NC(=O)Cc2noc3ccccc23)c1 [I-651]
5.00 to 6.00	CNC(=O)c1cnc(Nc2ccccc2C)c(NC(=O)c2noc3ccccc23)c1 [I-671]
5.00 to 6.00	Nc1ncc(C(=O)O)cc1NC(=O)c1csc2ccccc12 [I-673]
5.00 to 6.00	COC(=O)c1cnc(N)c(NC(=O)c2csc3ccccc23)c1 [I-674]
5.00 to 6.00	Nc1ncc(C(=O)NC2CC(F)(F)C2)cc1NC(=O)c1csc2ccccc12 [I-675]
5.00 to 6.00	Nc1ncc(C(=O)N[C@H]2C[C@@H](C(N)=O)C2)cc1NC(=O)c1csc2ccccc12 [I-689]
5.00 to 6.00	CC(NC(=O)c1cnc(N)c(NC(=O)c2csc3ccccc23)c1)c1cn[nH]c1 (stereo not shown) [I-690]
5.00 to 6.00	Cc1ccccc1Nc1ncc(C(=O)N[C@H]2C[C@@H](C(=O)N(C)C)C2)cc1NC(=O)c1csc2ccccc12 [I-694]
6.00 to 6.30	Cc1ccccc1Nc1ncc(C(=O)NCc2ccc(Cl)cc2)cc1NC(=O)c1cc(F)cc(C(F)(F)F)c1 [I-702]
5.00 to 6.00	COc1cncc(CNC(=O)c2cnc(Nc3ccccc3C)c(NC(=O)c3cc(F)cc(C(F)(F)F)c3)c2)c1 [I-707]
6.00 to 6.30	CNC(=O)c1cnc(Nc2ccccc2C)c(NC(=O)c2ccc(C#N)c(C(F)(F)F)c2)c1 [I-710]
6.00 to 6.30	CNC(=O)c1cnc(Nc2ccccc2C)c(NC(=O)c2cc(F)c(C(F)(F)F)c(F)c2)c1 [I-717]
5.00 to 6.00	Cc1ccccc1Nc1ncc(C(=O)NCc2ncccn2)cc1NC(=O)c1cc(F)cc(C(F)(F)F)c1 [I-719]
